The source of these data is the supplement of paper PMC10307832.

Common to all, as to assay: relative viability (nuclei count vs DMSO), 5 days (fraction); higher = more cells survive
Compound in the assay “Halofuginone + Lapatinib”: O=C(C[C@H]1NCCC[C@@H]1O)Cn1cnc2cc(Br)c(Cl)cc2c1=O (racemic) [Halofuginone] + CS(=O)(=O)CCNCc1ccc(-c2ccc3ncnc(Nc4ccc(OCc5cccc(F)c5)c(Cl)c4)c3c2)o1 [Lapatinib] (partner 2 µM)
Summed up: (§1)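 Lung cancer cell lines in 1536-well plates were dosed by pin tool the day after seeding, either with one drug alone or with a fixed anchor-drug dose plus five library-drug doses (not always all listed) in √10 steps. After 5 days, cells were fixed and their nuclei stained in one step (final 0.05% Triton X-100, 1% formaldehyde, 1 ug/ml Hoechst), then counted on 4× images. Relative viability is the nuclei count in treated wells divided by that in vehicle wells. Values are medians of duplicate plates.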

Compound in the assay “Decitabine + Crizotinib”: Nc1ncn([C@H]2C[C@H](O)[C@@H](CO)O2)c(=O)n1 [Decitabine] + C[C@@H](Oc1cc(-c2cnn(C3CCNCC3)c2)cnc1N)c1c(Cl)ccc(F)c1Cl [Crizotinib] (partner 1 µM)
In short, it runs like this:
as §1

Compound in assay [1]: O=C(C[C@H]1NCCC[C@@H]1O)Cn1cnc2cc(Br)c(Cl)cc2c1=O (racemic) [Halofuginone] + CS(=O)(=O)N1CCN(Cc2cc3nc(-c4cccc5[nH]ncc45)nc(N4CCOCC4)c3s2)CC1 [Pictilisib] (partner 1 µM)
Summed up: as §1

Compound in the assay “Cediranib + Pictilisib”: COc1cc2c(Oc3ccc4[nH]c(C)cc4c3F)ncnc2cc1OCCCN1CCCC1 [Cediranib] + CS(=O)(=O)N1CCN(Cc2cc3nc(-c4cccc5[nH]ncc45)nc(N4CCOCC4)c3s2)CC1 [Pictilisib] (partner 1 µM)
Summed up:
as §1

In the case of UMC-11, the relative viability with Halofuginone + Lapatinib (first compound 0.001 µM) turned out to be 1.02; in the assay with Halofuginone + Lapatinib (first compound 0.003162 µM), 0.997; in the assay with Halofuginone + Lapatinib (first compound 0.01 µM), 0.889; with Halofuginone + Lapatinib (first compound 0.03162 µM), 0.924; with Halofuginone + Lapatinib (first compound 0.1 µM), 0.7; with Decitabine + Crizotinib (first compound 0.04 µM), 0.483. In addition, the relative viability with Decitabine + Crizotinib (first compound 0.1265 µM) is 0.451; with Decitabine + Crizotinib (first compound 0.4 µM), 0.398; with Decitabine + Crizotinib (first compound 1.265 µM), 0.209; in the assay with Decitabine + Crizotinib (first compound 4 µM) it was 0.168; in assay [1] (first compound 0.001 µM) it was 0.9; in assay [1] (first compound 0.003162 µM), 0.76. The relative viability in assay [1] (first compound 0.01 µM) came to 0.772; in assay [1] (first compound 0.03162 µM) it was 0.758; in assay [1] (first compound 0.1 µM) it was 0.648; with Cediranib + Pictilisib (first compound 0.04 µM) it was 1.01; in the assay with Cediranib + Pictilisib (first compound 0.1265 µM), 0.316; in the assay with Cediranib + Pictilisib (first compound 0.4 µM), 0.707. Also, the relative viability in the assay with Cediranib + Pictilisib (first compound 1.265 µM) is 0.466; in the assay with Cediranib + Pictilisib (first compound 4 µM), 0.862.
